# PMC4038645 (Cancer, 2014)
# Where two headings read alike, the source gives them in different places. Marks after values point to notes of the source that are not given here.
# Assays:
# ABCB1 = conditions: cited from earlier work
# [1] = Plasma pharmacokinetics of sunitinib and N-desethyl sunitinib; format: in vivo, human; conditions: for half-life: n=1
# ABCG2 = conditions: cited from earlier work
# CYP3A4 = conditions: cited from earlier work
# [2] = test system: solid or hematologic malignancy; assay: Response assessment after every two cycles; format: in vivo, human; conditions: 17 patients evaluable for response
# [3] = phase III trial, 50mg/day, cited from earlier work
# [4] = human, in vivo, 6 weeks (cycle 1)
structure (smiles),measurement,setting,value
CCNCCNC(=O)c1c(C)[nH]c(/C=C2\C(=O)Nc3ccc(F)cc32)c1C [N-desethyl sunitinib],substrate for ABCB1 drug transporter,ABCB1,substrates
same,decrease in AUC0–24h compared to NNRTI,"[1]; human, in vivo",40%
same,decrease in Cmax compared to NNRTI,"[1]; human, in vivo",48%
same,increase in AUC0–24h compared to NNRTI,"[1]; human, in vivo",390%
same,increase in Cmax compared to NNRTI,"[1]; human, in vivo",410%
same,substrate for ABCG2 drug transporter,ABCG2,substrates
O=C1Nc2ccc(Cl)cc2[C@@](C#CC2CC2)(C(F)(F)F)O1 [efavirenz],induction of CYP3A4,CYP3A4,known inducer
"CCN(CC)CCNC(=O)c1c(C)[nH]c(/C=C2\C(=O)Nc3ccc(F)cc32)c1C [sunitinib, Sunitinib malate]",objective response to therapy,[2],No patient experienced an objective response
same,substrate for ABCB1 drug transporter,ABCB1,substrates
same,rate of grade 3 or 4 neutropenia,[3]; gastrointestinal stromal tumors,10%
same,rate of grade 3 or 4 neutropenia,[3]; primitive neuroectodermal tumors,16%
same,rate of grade 3 or 4 neutropenia,[3]; renal cell carcinoma,17%
same,"correlation between hand-foot syndrome and elevated Cmin,ss","[1]; Mann–Whitney U-test, p=0.013",There was a correlation
same,Cmax,"[1]; Ritonavir group, sunitinib 37.5 mg/day, Cycle 1 Day 1, mean±SD",19.9±5.9 (6) ng/mL
same,T1/2,"[1]; Ritonavir group, sunitinib 37.5 mg/day, actual values (n=2)",86.8 h
same,AUC(0-t),"[1]; human, in vivo, 37.5 mg/day",338 ± 99 ng·h/mL
same,fraction unbound,"[1]; human, in vivo, 37.5 mg/day",0.067 ± 0.021
same,half-life,"[1]; human, plasma, oral, 25 mg/day, T1/2, Ritonavir group, sunitinib 25 mg/day",66 h
same,Tmax,"[1]; human, plasma, oral, 50 mg/day",7.5 h
same,half-life,"[1]; human, plasma, oral, 50 mg/day, T1/2, NNRTI group, sunitinib 50 mg/day",63.6 h
same,substrate for ABCG2 drug transporter,ABCG2,substrates
same,ALT/AST Elevation All Grade (%),"human, in vivo",2 (11)
same,ALT/AST Elevation ≥G3 (%),"human, in vivo",0 (0)
same,Abdominal Pain All Grade (%),"human, in vivo",2 (11)
same,Abdominal Pain ≥G3 (%),"human, in vivo",0 (0)
same,Anemia All Grade (%),"human, in vivo",3 (16)
same,Anemia ≥G3 (%),"human, in vivo",1 (5)
same,Anorexia ≥G3 (%),"human, in vivo",0 (0)
same,Constipation All Grade (%),"human, in vivo",2 (11)
same,Constipation ≥G3 (%),"human, in vivo",0 (0)
same,Cough ≥G3 (%),"human, in vivo",0 (0)
same,Diarrhea All Grade (%),"human, in vivo",9 (47)
same,Diarrhea ≥G3 (%),"human, in vivo",1 (5)
same,Epistaxis ≥G3 (%),"human, in vivo",0 (0)
same,Fatigue All Grade (%),"human, in vivo",8 (42)
same,Fatigue ≥G3 (%),"human, in vivo",0 (0)
same,Headache All Grade (%),"human, in vivo",2 (11)
same,Headache ≥G3 (%),"human, in vivo",0 (0)
same,Hypertension All Grade (%),"human, in vivo",4 (21)
same,Hypertension ≥G3 (%),"human, in vivo",0 (0)
same,Hypopigmentation All Grade (%),"human, in vivo",2 (11)
same,Hypopigmentation ≥G3 (%),"human, in vivo",0 (0)
same,Mucositis All Grade (%),"human, in vivo",3 (16)
same,Mucositis ≥G3 (%),"human, in vivo",0 (0)
same,Myalgia/Limb Pain All Grade (%),"human, in vivo",2 (11)
same,Myalgia/Limb Pain ≥G3 (%),"human, in vivo",0 (0)
same,Nausea/Vomiting All Grade (%),"human, in vivo",6 (32)
same,Nausea/Vomiting ≥G3 (%),"human, in vivo",0 (0)
same,Neutropenia All Grade (%),"human, in vivo",10 (53)
same,Neutropenia ≥G3 (%),"human, in vivo",6 (32)
same,Rash ≥G3 (%),"human, in vivo",0 (0)
same,Thrombocytopenia All Grade (%),"human, in vivo",3 (16)
same,Thrombocytopenia ≥G3 (%),"human, in vivo",0 (0)
same,Wound Dehiscence All Grade (%),"human, in vivo",2 (11)
same,Wound Dehiscence ≥G3 (%),"human, in vivo",1 (5)
same,ALT/AST Elevation All Grade (%),"human, in vivo, 6 weeks",2 (11)
same,ALT/AST Elevation ≥G3 (%),"human, in vivo, 6 weeks",0 (0)
same,Constipation All Grade (%),"human, in vivo, 6 weeks",1 (5)
same,Constipation ≥G3 (%),"human, in vivo, 6 weeks",0 (0)
same,Diarrhea All Grade (%),"human, in vivo, 6 weeks",8 (42)
same,Diarrhea ≥G3 (%),"human, in vivo, 6 weeks",0 (0)
same,Fatigue All Grade (%),"human, in vivo, 6 weeks",7 (37)
same,Fatigue ≥G3 (%),"human, in vivo, 6 weeks",0 (0)
same,Hypertension All Grade (%),"human, in vivo, 6 weeks",3 (16)
same,Hypertension ≥G3 (%),"human, in vivo, 6 weeks",0 (0)
same,Mucositis All Grade (%),"human, in vivo, 6 weeks",2 (11)
same,Mucositis ≥G3 (%),"human, in vivo, 6 weeks",0 (0)
same,Nausea/Vomiting All Grade (%),"human, in vivo, 6 weeks",3 (16)
same,Nausea/Vomiting ≥G3 (%),"human, in vivo, 6 weeks",0 (0)
same,Anemia All Grade (%),[4],2 (11)
same,Anemia ≥G3 (%),[4],1 (5)
same,Neutropenia All Grade (%),[4],10 (53)
same,Neutropenia ≥G3 (%),[4],5 (26)
same,Thrombocytopenia All Grade (%),[4],2 (11)
same,Thrombocytopenia ≥G3 (%),[4],0 (0)
same,Wound Dehiscence All Grade (%),[4],2 (11)
same,Wound Dehiscence ≥G3 (%),[4],1 (5) ^#
same,recommended dose,"patients on ritonavir, 4 week on/2 week off schedule",37.5 mg/day
same,MTD,"patients on ritonavir, daily, 4 weeks on/2 weeks off",37.5 mg
